Measurements published in patent US7547716B2, “Sulfonamide derivatives” (Institute of Medicinal Molecular Design, Inc., priority 2001, dated 2009).
Where a name gives a salt, the structure may show the parent alone.

Tested on: Jurkat cells
Test: Jurkat cell proliferation, compound alone or combined with bleomycin, living cells counted by MTS method
Format: cell-based
Parameters: key: ++ indicates observation of remarkable enhancement; + indicates moderated enhancement
Conditions: enhancement of the decrease in Jurkat cell survival rate by bleomycin 5 μg/ml or 10 μg/ml, 36 hours incubation
Procedure: By using the compounds synthesized above, effects on proliferation of Jurkat cells by sole administration and inhibitory effects on cell proliferation by administration in combination with bleomycin were examined. Materials and methods are as follows. Jurkat cells obtained from Dainippon Pharmaceutical Co. Ltd. were inoculated at about 10,000 cells per well in a 96 well culture plate, and incubated in 10% bovine fetal serum (Irvine Scientific) supplemented with RPMI1640(ICN) medium in 5% CO2 incubator at 37° C. […] 36 hours after the incubation, the number of living cells was counted by the MTS method.
More specifically, 20 μl of CellTiter96™ AQueous One Solution (Promega) was added per one well, and after the cells were incubated for additional one hour, an absorbance at 490 nm was measured by using a microplate reader. The same culture added with DMSO as a solvent at final concentration of 0.25% was used as a control. The number of cells in the control was considered as 100% survival rate, and for each compound, survival rates by sole administration or a combined administration were calculated.

| Compound | Activity |
| --- | --- |
| 5-amino-N-[(2-fluorophenyl)methyl-1-naphthalenesulfonamide hydrochloride [Compound 9] | + |
| 5-amino-N-[[[4′-methyl-1,1′-biphenyl]-2-yl]methyl]-1-naphthalenesulfonamide hydrochloride [Compound 23] | + |
| Nc1cccc2c(S(=O)(=O)NCc3cccc4ccccc34)cccc12 [Compound 1, 5-amino-N-[(1-naphthalenyl)methyl]-1-naphthalenesulfonamide hydrochloride] | + |
| Nc1cccc2c(S(=O)(=O)NCc3ccccc3Cl)cccc12 [Compound 3, 5-amino-N-[(2-chlorophenyl)methyl]-1-naphthalenesulfonamide hydrochloride] | + |
| Nc1cccc2c(S(=O)(=O)NCc3ccc(Cl)cc3)cccc12 [Compound 5, 5-amino-N-[(4-chlorophenyl)methyl]-1-naphthalenesulfonamide hydrochloride] | + |
| Nc1cccc2c(S(=O)(=O)NCc3ccc(Cl)cc3Cl)cccc12 [Compound 6, 5-amino-N-[(2,4-dichlorophenyl)methyl]-1-naphthalenesulfonamide hydrochloride] | ++ |
| Nc1cccc2c(S(=O)(=O)NCc3c(F)cccc3F)cccc12 [Compound 12, 5-amino-N-[(2,6-difluorophenyl)methyl]-1-naphthalenesulfonamide hydrochloride] | ++ |
| Nc1cccc2c(S(=O)(=O)NCc3cc(F)cc(F)c3)cccc12 [Compound 14, 5-amino-N-[(3,5-difluorophenyl)methyl]-1-naphthalenesulfonamide hydrochloride] | + |
| Cc1ccccc1CNS(=O)(=O)c1cccc2c(N)cccc12 [Compound 15, 5-amino-N-[(2-methylphenyl)methyl]-1-naphthalenesulfonamide hydrochloride] | + |
| CC(C)(C)c1ccc(CNS(=O)(=O)c2cccc3c(N)cccc23)cc1 [Compound 18, 5-amino-N-[[4-(1,1-dimethylethyl)phenyl]methyl]-1-naphthalenesulfonamide hydrochloride] | ++ |
| Nc1cccc2c(S(=O)(=O)NCc3ccccc3C(F)(F)F)cccc12 [Compound 19, 5-amino-N-[[2-(trifluoromethyl)phenyl]methyl]-1-naphthalenesulfonamide hydrochloride] | ++ |
| Nc1cccc2c(S(=O)(=O)NCc3ccc(C(F)(F)F)cc3)cccc12 [Compound 21, 5-amino-N-[[4-(trifluoromethyl)phenyl]methyl]-1-naphthalenesulfonamide hydrochloride] | ++ |
| COc1ccccc1CNS(=O)(=O)c1cccc2c(N)cccc12 [Compound 24, 5-amino-N-[(2-methoxyphenyl)methyl]-1-naphthalenesulfonamide hydrochloride] | ++ |
| COc1cccc(CNS(=O)(=O)c2cccc3c(N)cccc23)c1 [Compound 25, 5-amino-N-[(3-methoxyphenyl)methyl]-1-naphthalenesulfonamide hydrochloride] | ++ |
| COc1ccc(CNS(=O)(=O)c2cccc3c(N)cccc23)cc1 [Compound 26, 5-amino-N-[(4-methoxyphenyl)methyl]-1-naphthalenesulfonamide hydrochloride] | + |
| COc1cccc(CNS(=O)(=O)c2cccc3c(N)cccc23)c1OC [Compound 28, 5-amino-N-[(2,3-dimethoxyphenyl)methyl]-1-naphthalenesulfonamide hydrochloride] | ++ |
| COc1cc(CNS(=O)(=O)c2cccc3c(N)cccc23)cc(OC)c1 [Compound 31, 5-amino-N-[(3,5-dimethoxyphenyl)methyl]-1-naphthalenesulfonamide hydrochloride] | ++ |
| Nc1cccc2c(S(=O)(=O)NCc3cccc(OCc4ccccc4)c3)cccc12 [Compound 35, 5-amino-N-[[3-(phenylmethoxy)phenyl]methyl]-1-naphthalenesulfonamide hydrochloride] | + |
| Nc1cccc2c(S(=O)(=O)NCc3ccc(OCc4ccccc4)cc3)cccc12 [Compound 36, 5-amino-N-[[4-(phenylmethoxy)phenyl]methyl]-1-naphthalenesulfonamide hydrochloride] | + |
| Nc1cccc2c(S(=O)(=O)NCc3cccc(O)c3)cccc12 [Compound 38, 5-amino-N-[(3-hydroxyphenyl)methyl]-1-naphthalenesulfonamide hydrochloride] | + |
| Nc1cccc2c(S(=O)(=O)NCc3cccc([N+](=O)[O-])c3)cccc12 [Compound 41, 5-amino-N-[(3 nitrophenyl)methyl]-1-naphthalenesulfonamide hydrochloride] | ++ |
| Nc1cccc2c(S(=O)(=O)NCc3ccc([N+](=O)[O-])cc3)cccc12 [Compound 42, 5-amino-N-[(4-nitrophenyl)methyl]-1-naphthalenesulfonamide hydrochloride] | ++ |
| Nc1ccccc1CNS(=O)(=O)c1cccc2c(N)cccc12 [Compound 43, 5-amino-N-[(2-aminophenyl)methyl]-1-naphthalenesulfonamide dihydrochloride] | + |
| Nc1cccc(CNS(=O)(=O)c2cccc3c(N)cccc23)c1 [Compound 44, 5-amino-N-[(3-aminophenyl)methyl]-1-naphthalenesulfonamide dihydrochloride] | + |
| Nc1cccc2c(S(=O)(=O)NCc3ccc(C(=O)O)cc3)cccc12 [Compound 48, 4-[[[(5-amino-1-naphthalenyl)sulfonyl]-amino]methyl]benzoic acid hydrochloride] | + |
| Nc1cccc2c(S(=O)(=O)NCc3ccccn3)cccc12 [Compound 53, 5-amino-N-(2-pyridinylmethyl)-1-naphthalenesulfonamide dihydrochloride] | + |
| CC(NS(=O)(=O)c1cccc2c(N)cccc12)c1ccccc1 (stereo not drawn) [Compound 55, 5-amino-N-(1-phenylethyl)-1-naphthalenesulfonamide] | + |
| CC(NS(=O)(=O)c1cccc2c(N)cccc12)c1cccc2ccccc12 (stereo not drawn) [Compound 56, 5-amino-N-[1-(1-naphthalenyl)ethyl]-1-naphthalenesulfonamide hydrochloride] | + |
| Nc1cccc2c(S(=O)(=O)NC3CCCc4ccccc43)cccc12 (stereo not drawn) [Compound 58, 5-amino-N-(1,2,3,4-tetrahydro-1-naphthalenyl)-1-naphthalenesulfonamide] | + |
| Nc1cccc2c(S(=O)(=O)Nc3ccccc3)cccc12 [Compound 64, 5-amino-N-phenyl-1-naphthalenesulfonamide hydrochloride] | + |
